Measured values: PubChem BioAssay (NCI)
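Interpolation was linear, between the two tested concentrations surrounding the appropriate level; five concentrations were tested over 48 hours in 96-well plates. At the GI50, growth is halved. TGI denotes the concentration required for complete inhibition of growth.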

Legend:
Assay in all cases: NCI anticancer screen, dose series, 48 h
A549 NSCLC = test system: A549 NSCLC
COLO 205 colon = test system: COLO 205 colon
ACHN renal = test system: ACHN renal
HL-60(TB) leukemia = test system: HL-60(TB) leukemia
HOP-62 NSCLC = test system: HOP-62 NSCLC
HCC-2998 colon = test system: HCC-2998 colon
NCI-H522 lung = test system: NCI-H522 lung
RPMI-8226 leukemia = test system: RPMI-8226 leukemia
MALME-3M melanoma = test system: MALME-3M melanoma
OVCAR-8 ovarian = test system: OVCAR-8 ovarian

| Compound | GI50 (A549 NSCLC) [µM] | TGI (A549 NSCLC) [µM] | GI50 (COLO 205 colon) [µM] | TGI (COLO 205 colon) [µM] | GI50 (ACHN renal) [µM] | TGI (ACHN renal) [µM] | GI50 (HL-60(TB) leukemia) [µM] | TGI (HL-60(TB) leukemia) [µM] | GI50 (HOP-62 NSCLC) [µM] | TGI (HOP-62 NSCLC) [µM] | GI50 (HCC-2998 colon) [µM] | TGI (HCC-2998 colon) [µM] | GI50 (NCI-H522 lung) [µM] | TGI (NCI-H522 lung) [µM] | GI50 (RPMI-8226 leukemia) [µM] | TGI (RPMI-8226 leukemia) [µM] | GI50 (MALME-3M melanoma) [µM] | TGI (MALME-3M melanoma) [µM] | GI50 (OVCAR-8 ovarian) [µM] | TGI (OVCAR-8 ovarian) [µM] |
| --- | --- | --- | --- | --- | --- | --- | --- | --- | --- | --- | --- | --- | --- | --- | --- | --- | --- | --- | --- | --- |
| COc1cc2cc(Oc3ccc(NC(=O)c4ccc(Cl)c(C(F)(F)F)c4)cc3)c(C)nc2cc1OC | 10.3 | > 100 | 11.2 | 24 | 10.8 | > 100 | 20.8 | 82 | 42.6 | > 100 | 41.7 | > 100 | 8.78 | 83.3 | 5.43 | 32.7 | 28.6 | 95.1 | 22.9 | > 100 |
| Fc1ccc(Nc2nc(NCCNc3ccnc4cc(Cl)ccc34)nc(N3CCOCC3)n2)cc1 | 10.5 | 25.1 | 1.71 | 3.26 | 7.06 | 20.2 | 1.8 | 4.89 | 13.4 | 26.5 | 2 | 3.95 | 4.25 | 15.3 | 3.15 | 14.6 | 2.76 | 4.52 | 11.6 | 40.6 |
| CN(C)c1ccc(N=Nc2c([O-])ccc3ccccc23)cc1.[C-]#[O+].[C-]#[O+].[Ir] | > 46.6 | > 69.3 | 16.5 | 31.6 | 5.43 | 55.2 | 10.6 | > 46.6 | > 100 | > 100 | 38.5 | > 79.9 | 7.83 | 23.5 | 22.7 | > 65.1 | 15.7 | 33.4 | 25 | 65.4 |
| CCN1C(=O)N(CC)C2C1NN=c1s/c(=C3\C(=O)N(C)c4ccccc43)c(=O)n12 (stereo not given) | 1.83 | > 100 | 1.08 | 55.1 | 0.752 | > 100 | 0.434 | 2.05 | 2.25 | > 100 | 1.8 | > 100 | 0.609 | 33 | 0.89 | 12.6 | 0.993 | > 100 | 2.82 | > 100 |
| CC(C)OC(=O)c1ccc2[nH]c(O)c(C(=Nc3ccc(N(C)C(=O)CN4CCN(C)CC4)cc3)c3ccccc3)c2c1 | 0.389 | 2.18 | 0.285 | 1.41 | 0.332 | 1.4 | 0.357 | 1.18 | 0.471 | 2.4 | 0.792 | 2.21 | 1.22 | 3.02 | 0.385 | 1.79 | 0.859 | 2.29 | 0.622 | 3.17 |
| C=C(N=[N+]=[N-])c1cn(C2CC(O)C(CO)O2)c(=O)[nH]c1=O (stereo not given) | – | > 100 | – | > 100 | – | > 100 | – | > 100 | – | > 100 | – | > 100 | – | > 100 | – | > 100 | – | > 100 | – | > 100 |
| O=c1cccccc1NCCCCCCCCCNc1cccccc1=O | – | > 100 | – | 26.2 | – | 36.2 | – | 24.5 | – | 35.7 | – | 78.7 | – | 52.9 | – | 22.3 | – | 39.9 | – | 34.7 |
